As a reminder, the IC50 is the concentration that inhibits the measured activity by half. High values mean lower potency, low ones higher potency. One may read the Ki as the dissociation constant of the complex between target and ligand, obtained from inhibition or displacement. Low values mean higher affinity, high ones lower affinity.

The nature of assay [1]: Displacement of [3H]CNQX from Ionotropic glutamate receptor kainate/Ionotropic glutamate receptor AMPA in rat cortical membranes. The class given is cell membranes, Membrane.
Assay [2] addresses Glutamate receptor ionotropic, NMDA 1 (Rattus norvegicus, UniProt P35439). The assay can be described thus: Binding affinity at glycine co-agonist site of rat NMDA receptor.
The species entered for assay [3] is Rattus norvegicus. The assay can be described thus: Compound was tested for the ability to inhibit kainic acid (KA)-induced inward currents in Xenopus oocytes injected with poly {A+) mRNA from rats. The class given is functional.
The nature of assay [4]: Tested for its ability to displace [3H]glutamate from NMDA receptor.
The species entered for assay [5] is Rattus norvegicus. Briefly: Compound was tested for its ability to inhibit kainic acid (KA)-induced inward currents in Xenopus oocytes injected with poly {A+) mRNA from rats. The class given is functional.

Some results are limits rather than exact numbers.

On to `O=C(O)c1cc(CP(=O)(O)O)c2ccc(Cl)cc2n1`, for which the IC50 in assay [1] amounted to 61 µM; in assay [2], 69 µM. Affinity in the assay listed under Rattus norvegicus [3] was put at a Ki of 132 µM.

In the case of `NC(Cc1cc(I)ccc1CCP(=O)(O)O)C(=O)O` (stereo unspecified), the half-inhibitory concentration (IC50) is over 300 µM in assay [4], 7.3 µM in assay [1] and 81 µM in assay [2]. The Ki in the assay filed under Rattus norvegicus [5] is 3.5 µM.

As to `O=[N+]([O-])c1c(Cl)ccc2nc(O)cc(CP(=O)(O)O)c12`, the half-maximal inhibitory concentration (IC50) in assay [4], in assay [1] and in assay [2] was over 1000 µM throughout. For the same molecule, the Ki in the assay listed under Rattus norvegicus [3] is over 300 µM.

Turning to `O=P(O)(O)c1cc(O)nc2cc(Cl)ccc12`, the results for the half-maximal inhibitory concentration (IC50) in assay [4] and in assay [2] were over 300 µM and over 1000 µM, respectively. Also, the Ki in the assay listed under Rattus norvegicus [3] was over 1000 µM.

On to `O=P(O)(O)Cc1cc(O)nc2cc(Cl)c(Cl)cc12`, for which the half-inhibitory concentration (IC50) in assay [4] was over 100 µM; in assay [1], 15 µM; in assay [2], 79 µM. The Ki in the assay filed under Rattus norvegicus [3] turned out to be 9.6 µM.

For the molecule `O=C(O)c1cc(CCP(=O)(O)O)c2ccc(Cl)cc2n1`, the values for the IC50 in assay [4], in assay [1] and in assay [2] were over 1000 µM, 384 µM and over 1000 µM, respectively. Further, in the assay listed under Rattus norvegicus [3], the Ki amounted to 450 µM.

Turning to `O=P(O)(O)CCc1cc(O)nc2cc(Cl)ccc12`, the figures for the IC50 in assay [4] and in assay [1] were 600 µM and 91 µM, respectively.

For `N#Cc1cc2c(cc1[N+](=O)[O-])=NC(=O)C(=O)N=2`, the 50% inhibitory concentration (IC50) in assay [1] was 0.13 µM; in assay [2], 7.9 µM.

As to `O=P(O)(O)Cc1cc(O)nc2cc(I)ccc12`, the concentration for half-maximal inhibition (IC50) in assay [4] came out at 35 µM; in assay [1], 35 µM; in assay [2], 37 µM. The molecule further registered a Ki in the assay filed under Rattus norvegicus [3] of 15.6 µM.

As to `O=[N+]([O-])c1c(Cl)ccc2c(CP(=O)(O)O)cc(O)nc12`, the results for the concentration for half-maximal inhibition (IC50) in assay [4], in assay [1] and in assay [2] were over 1000 µM, 300 µM and over 1000 µM, respectively.

`O=P(O)(O)Cc1cc(O)nc2cc(Cl)ccc12`: the half-maximal inhibitory concentration (IC50) worked out at 30 µM in assay [4], 59 µM in assay [1] and 10 µM in assay [2]. Further, in the assay filed under Rattus norvegicus [3], the Ki was found to be 32 µM.

For the molecule `O=P(O)(O)Cc1cc(O)nc2cc(Cl)cc(Cl)c12`, the IC50 in assay [4] is over 100 µM; in assay [1] it was 26 µM; in assay [2], 29 µM. The molecule further returned a Ki in the assay listed under Rattus norvegicus [3] of 18.2 µM.

The values are drawn from ChEMBL document CHEMBL1127957, “Synthesis and glutamate antagonist activity of 4-phosphonoalkylquinoline derivatives: A novel class of non-NMDA antagonist” (Bioorg Med Chem Lett, 1994).
